Measurements from patent US7507739B2, “6-[(substituted)phenyl]triazolopyrimidines as anticancer agents” (Wyeth, priority 2003, dated 2009).

Tests used:
KB cells = assay: MTS cytotoxicity test with KB cells; format: cell-based; settings: Homo sapiens; KB cells, MTS; read-out: IC50 KB
Source text: (§1) Human cancer cell lines, unless otherwise noted, are obtained from the American Type Culture Collection (Rockville, Md.). The following drug-sensitive parental cell lines, and their derived drug-resistant counterparts, are obtained from the originators as listed: (a) S1 (parental line from a subclone of human colon carcinoma line LS174T) and derived S1-M1-3.2 (herein called S1-M1) which expresses the MXR drug transporter protein, are provided by Dr. L. Greenberger, Wyeth Research (Rabindran, S. K., He, H., Singh, M., Brown, E., Collins, K. I., Annable, T., and Greenberger, L. M. Reversal of a novel multidrug resistance mechanism in human colon carcinoma cells by fumitremorgin C. Cancer Res., 58:5850-5858,1998); (b) parental HL-60 human promyelocytic leukemia line and derived HL-60/ADR, which expresses the MRP1 drug transporter protein, are provided by Dr. M. Center, University of Kansas (McGrath, T., and Center, M. S. Adriamycin resistance in HL60 cells in the absence of detectable P-glycoprotein. Biochem. Biophys. […] J. Biol. Chem., 261: 7762-7770,1986) via Dr. L. Greenberger, Wyeth Research.
(§2) The assay, which is sold in kit form by Promega (Madison, Wis.; CellTiter 96 AQueous Non-Radioactive Cell Proliferation Assay), is based on the conversion by viable cells, but not by dead cells, of the tetrazolium salt, MTS (3-(4,5-dimethylthiazol-2-yl)-5-(3-carboxymethoxyphenyl)-2-(4-sulphophenyl)-2H-tetrazolium, inner salt), into a water-soluble colored formazan which is detected by spectrophotometry. Compounds are tested at nine concentrations, in order to determine IC50 values. For the test procedure, cells are harvested by trypsinization (or, in the case of non-adherent cells, by simple resuspension), washed, counted and distributed to wells of 96-well flat-bottom microtiter plates at 1000 cells per well in 200 μL of medium. In addition, one row of wells on a separate plate received cells as above (“time 0” plate). All plates are incubated at 37° in humidified 5% CO2 in air for about 24 hr.
(§3) On day 2, compounds for test are diluted and added to wells. Compounds are dissolved in DMSO at 10 mg/mL. For each compound, nine serial 2-fold dilutions are prepared in DMSO. Ten μL of each dilution in DMSO is transferred to 100 μL of medium, mixed well, and then 5 μL of this dilution is transferred in quadruplicate to wells containing cells. […] Plates are returned to the incubator for three days. At the time of drug addition to the experimental plates, the MTS assay is run on the “time 0” plate. This produced the “time 0 MTS value” which is related to the number of viable cells per well at the time of drug addition.
(§4) After three days of culture with test compounds (day 5 overall), the MTS assay is done on all wells of the experimental plates. The absorbance values of the quadruplicate sample wells are averaged and divided by the average of the “time 0” values. […] The nine values for each compound are plotted against concentration, and the concentration that produced a relative color yield half way between the maximum and minimum is taken as the IC50 value.
(§5) The KB lines express different amounts of the P-glycoprotein (MDR1) membrane pump which produces resistance to the action of many cytotoxic compounds, including paclitaxel and vincristine. The parental KB line expresses no P-glycoprotein, KB-8-5 expresses moderate levels of the protein, and KB-V1 expresses very high levels.

pure tubulin = assay: Tubulin polymerization test with pure tubulin without GTP; format: biochemical, bovine; settings: no GTP
Method: (§6) Medium is RPMI-1640 with L-glutamine, supplemented with 10% heat-inactivated fetal calf serum, 100 units/ml penicillin, and 100 μg/ml streptomycin (Gibco, Grand Island, N.Y.). Microtubule-associated protein (MAP)-rich tubulin, containing about 70% tubulin and 30% MAPs (#ML113), and highly purified tubulin (>99% pure, #TL238), both from bovine brain, are obtained from Cytoskeleton, Inc., Denver, Colo. PEM buffer (80 mM piperazine-N,N′-bis[2-ethanesulfonic acid], pH 6.9, 1 mM ethylene glycol-bis(β-aminoethyl ether)-N,N,N′,N′-tetraacetic acid, 1 mM magnesium chloride) and guanosine 5′-triphosphate (GTP) are also obtained from Cytoskeleton. [3H]paclitaxel, specific activity 14.7 Ci/mmol, is purchased from Moravek Biochemicals (Brea, Calif.). [^3H]vinblastine, specific activity 9.60 Ci/mmol and MicroSpin G-50 columns are obtained from Amersham Biosciences (Piscataway, N.J.). […] Other reagents are obtained from Sigma (St. Louis, Mo.).
Two variations of this procedure are done, one using MAP-rich tubulin and one using pure tubulin.
The procedure with pure tubulin is similar except for the following changes. […] The supernatant after centrifugation is dispensed to a 96-well plate already containing compounds. Each compound is tested in duplicate at six serial 3-fold dilutions starting at 24.3 μM. The plate reader is thermostated at 35°.

tubulin heterodimer = assay: Competitive binding test, [3H]colchicine; design: species or system bovine; settings: [3H]colchicine 50 nM
Method: as §6
The binding of examples of this invention to highly purified tubulin is studied by competitive inhibition methods. […] To study possible competition at the taxane site, on the other hand, polymerized tubulin (microtubules) is used because paclitaxel binds preferentially to microtubules.
Highly purified tubulin is dissolved in PEM buffer without GTP and used at a final concentration of 1.0 to 1.3 mg/ml (10 to 13 μM). […] These solutions are incubated at 24° for 1 hr and then applied to MicroSpin G-50 columns which are centrifuged for 2 min at 3000 rpm in an Eppendorf 5415C microfuge. An aliquot of each column effluent (containing tubulin and bound radioligand) is mixed with scintillation fluid and counted in a liquid scintillation spectrometer. […] The ability of the competitor to inhibit the binding of the radioligand is expressed as a percentage of control binding in the absence of any competitor.

S1-M1 cells = assay: MTS cytotoxicity test with S1-M1 cells (MXR); format: cell-based, human; settings: for IC50: Homo sapiens, S1-M1 cells, MTS, read-out: IC50 S1-M1; for Ratio: IC50 on S1-M1 cells/IC50 on S1 cells
Source text: as §1, §2, §3, §4
S1-M1 cells overexpress the MXR transporter which mediates resistance to some chemotherapeutics (Gottesman, M. M., Fojo, T., and Bates, S. E. Miltidrug resistance in cancer: role of ATP-dependent transporters. Nature Rev. Cancer, 2: 48-58, 2002). The IC50 values of representative examples of this invention, as well as reference compounds, on S1-M1 are compared to values on the sensitive parental S1 line.

KB-8-5 cells = assay: MTS cytotoxicity test with KB-8-5 cells (moderate P-glycoprotein); format: cell-based, human; settings: for IC50: Homo sapiens, KB-8-5 cells, MTS, read-out: IC50 KB 8.5; for Ratio 8.5/KB: IC50 on KB 8.5 cells/IC50 on KB cells
Source text: as §1, §2, §3, §4, §5

Compound: C[C@H](Nc1c(-c2c(F)cc(OCCCN(C)C)cc2F)c(Cl)nc2ncnn12)C(F)(F)F.Cl [Example 1a, 5-chloro-6-{4-[3-(dimethylamino)propoxy]-2,6-difluorophenyl}-N-[(1S)-2,2,2-trifluoro-1-methylethyl][1,2,4]triazolo[1,5-a]pyrimidin-7-amine hydrogen chloride Salt]
- IC50 (KB cells): 28 nM
- absorbance increase, polymerization of pure tubulin (pure tubulin; 2.7 μM): no effect
- absorbance increase, polymerization of pure tubulin (pure tubulin; 8.1 μM): lower and less rapid increase
- A340 at 0 min (pure tubulin; 24.3 μM): 0
- A340 at 5 min (pure tubulin; 24.3 μM): 0.22
- A340 at 10 min (pure tubulin; 24.3 μM): 0.23
- A340 at 15 min (pure tubulin; 24.3 μM): 0.22
- A340 at 20 min (pure tubulin; 24.3 μM): 0.21
- absorbance increase, polymerization of pure tubulin (pure tubulin; 24.3 μM, first 5 min): rapid increase in absorbance
- [3H]Colchicine binding, percent of control without competitor, Mean (tubulin heterodimer): 129%
- IC50 (S1-M1 cells): 75 nM
- Ratio (S1-M1 cells): 1.0
- IC50 (KB-8-5 cells): 62 nM
- Ratio 8.5/KB (KB-8-5 cells): 2.2

Compound: CNCCCOc1cc(F)c(-c2c(Cl)nc3ncnn3c2C2CCCCCC2)c(F)c1.O=C(O)C(F)(F)F [Example 32, 3-[4-(5-Chloro-7-cycloheptyl[1,2,4]triazolo[1,5-a]pyrimidin-6-yl)-3,5-difluorophenoxy]-N-methylpropan-1-amine trifluoroacetic acid salt]
- IC50 (KB cells): 11 nM
- absorbance increase, polymerization of pure tubulin (pure tubulin; 2.7 μM): no effect
- absorbance increase, polymerization of pure tubulin (pure tubulin; 8.1 μM): lower and less rapid increase
- A340 at 0 min (pure tubulin; 24.3 μM): 0
- A340 at 5 min (pure tubulin; 24.3 μM): 0.26
- A340 at 10 min (pure tubulin; 24.3 μM): 0.26
- A340 at 15 min (pure tubulin; 24.3 μM): 0.25
- A340 at 20 min (pure tubulin; 24.3 μM): 0.25
- absorbance increase, polymerization of pure tubulin (pure tubulin; 24.3 μM, first 5 min): rapid increase in absorbance
- [3H]Colchicine binding, percent of control without competitor, Mean (tubulin heterodimer): 94%
- IC50 (S1-M1 cells): 9 nM
- Ratio (S1-M1 cells): 0.80
- IC50 (KB-8-5 cells): 15 nM

Compound: CC(=O)O[C@H]1C(=O)[C@@]2(C)[C@H]([C@H](OC(=O)c3ccccc3)[C@]3(O)C[C@H](OC(=O)[C@H](O)[C@@H](NC(=O)c4ccccc4)c4ccccc4)C(C)=C1C3(C)C)[C@]1(OC(C)=O)CO[C@@H]1C[C@@H]2O [Paclitaxel, reference compound]
- IC50 (KB cells): 2.9 nM
- A340 at 0 min (pure tubulin; 24.3 μM): 0
- A340 at 5 min (pure tubulin; 24.3 μM): 0
- A340 at 10 min (pure tubulin; 24.3 μM): 0
- A340 at 15 min (pure tubulin; 24.3 μM): 0.01
- A340 at 20 min (pure tubulin; 24.3 μM): 0.01
- [3H]Colchicine binding, percent of control without competitor, Mean (tubulin heterodimer): 93%
- IC50 (S1-M1 cells): 4.4 nM
- Ratio (S1-M1 cells): 0.54
- IC50 (KB-8-5 cells): 56 nM
- Ratio 8.5/KB (KB-8-5 cells): 19

Compound: C[C@H](Nc1c(-c2c(F)cc(OCCCO)cc2F)c(Cl)nc2ncnn12)C(F)(F)F [Example 20, 3-[4-(5-Chloro-7-{[(1S)-2,2,2-trifluoro-1-methylethyl]amino}[1,2,4]triazolo[1,5-a]pyrimidin-6-yl)-3,5-difluorophenoxy]propan-1-ol]
- IC50 (KB cells): 57 nM
- A340 at 0 min (pure tubulin; 24.3 μM): 0
- A340 at 5 min (pure tubulin; 24.3 μM): 0.03
- A340 at 10 min (pure tubulin; 24.3 μM): 0.03
- A340 at 15 min (pure tubulin; 24.3 μM): 0.03
- A340 at 20 min (pure tubulin; 24.3 μM): 0.03
- [3H]Colchicine binding, percent of control without competitor, Mean (tubulin heterodimer): 98%
- IC50 (S1-M1 cells): 91 nM
- Ratio (S1-M1 cells): 1.1
- IC50 (KB-8-5 cells): 66 nM

Compound: CC[C@]1(O)C[C@H]2CN(CCc3c([nH]c4ccccc34)[C@@](C(=O)OC)(c3cc4c(cc3OC)N(C=O)[C@H]3[C@@](O)(C(=O)OC)[C@H](OC(C)=O)[C@]5(CC)C=CCN6CC[C@]43[C@@H]65)C2)C1 [Vincristine, reference compound]
- IC50 (KB cells): 6.4 nM
- A340 at 0 min (pure tubulin; 24.3 μM): 0
- A340 at 5 min (pure tubulin; 24.3 μM): 0.01
- A340 at 10 min (pure tubulin; 24.3 μM): 0.01
- A340 at 15 min (pure tubulin; 24.3 μM): 0
- A340 at 20 min (pure tubulin; 24.3 μM): 0
- [3H]Colchicine binding, percent of control without competitor, Mean (tubulin heterodimer): 99%
- IC50 (S1-M1 cells): 4.6 nM
- Ratio (S1-M1 cells): 0.82
- IC50 (KB-8-5 cells): 72 nM
- Ratio 8.5/KB (KB-8-5 cells): 11

Compound: CNCCCOc1cc(F)c(-c2c(Cl)nc3ncnn3c2NCC(F)(F)F)c(F)c1.Cl [Example 3a, 5-Chloro-6-{2,6-difluoro-4-[3-(methylamino)propoxy]phenyl}-N-(2,2,2-trifluoroethyl)[1,2,4]triazolo[1,5-a]pyrimidin-7-amine hydrogen chloride Salt]
- IC50 (KB cells): 18 nM
- absorbance increase, polymerization of pure tubulin (pure tubulin; 2.7 μM): no effect
- absorbance increase, polymerization of pure tubulin (pure tubulin; 8.1 μM): lower and less rapid increase
- A340 at 0 min (pure tubulin; 24.3 μM): 0
- A340 at 5 min (pure tubulin; 24.3 μM): 0.19
- A340 at 10 min (pure tubulin; 24.3 μM): 0.20
- A340 at 15 min (pure tubulin; 24.3 μM): 0.20
- A340 at 20 min (pure tubulin; 24.3 μM): 0.20
- absorbance increase, polymerization of pure tubulin (pure tubulin; 24.3 μM, first 5 min): rapid increase in absorbance
- [3H]Colchicine binding, percent of control without competitor, Mean (tubulin heterodimer): 134%
- IC50 (S1-M1 cells): 71 nM
- Ratio (S1-M1 cells): 1.2
- IC50 (KB-8-5 cells): 69 nM
- Ratio 8.5/KB (KB-8-5 cells): 3.8
